31 molecules from US8937077B2, “Bicyclic diamines as janus kinase inhibitors” (Merck Sharp & Dohme Corp., priority 2010, dated 2015) can be followed below.

Each structure is given as a SMILES string.

The target of one assay is T1, Jak1 (Homo sapiens, UniProt P23458).
T1 construct: using a recombinant purified GST-tagged catalytic domain for each enzyme; GST; purchased Invitrogen M4290
T1 sequence (P23458 875-1153 limits assumed): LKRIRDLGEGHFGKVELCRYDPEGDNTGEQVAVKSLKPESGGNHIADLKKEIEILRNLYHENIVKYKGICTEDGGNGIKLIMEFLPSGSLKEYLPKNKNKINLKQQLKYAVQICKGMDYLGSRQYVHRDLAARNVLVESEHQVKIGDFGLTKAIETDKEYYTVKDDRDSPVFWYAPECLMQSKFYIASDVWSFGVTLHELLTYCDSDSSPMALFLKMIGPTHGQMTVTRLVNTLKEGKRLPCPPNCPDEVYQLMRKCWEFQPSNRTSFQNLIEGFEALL
The assay can be described thus: Jak Biochemical HTRF Assay (Jak1). The following applies: IC50 class, recombinant GST-tagged catalytic domain, read-out: Jak1 activity. An outline of the steps: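 Recombinant GST-tagged Jak1 catalytic domain was preincubated with compound and peptide substrate for 30 min at room temperature, and the reaction was then started with ATP and run 120 min. Buffer contained 2 mM DTT and 0.05% BSA. Read-out was HTRF (665/615 nm) with Eu-pY20 antibody and streptavidin-Dylight, and IC50 values came from 4-parameter fits of percent inhibition.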
A general note: TR-FRET usually uses a lanthanide donor and a delayed reading to cut background.
As to `O=C(c1ccc(N2CCOCC2)cc1)N1CCCC2C1CCN2c1ncnc2[nH]ccc12` [Example 29-1, (3aS,7aS and 3aR,7aR) 4-{4-[(4-morpholin-4-ylphenyl)carbonyl]octahydro-1H-pyrrolo[3,2-b]pyridin-1-yl}-7H-pyrrolo[2,3-d]pyrimidine], the IC50 is 100 to 1000 nM.

`COc1ccc(CC(=O)N2CCCC3C2CCN3c2ncnc3[nH]ccc23)cc1` (centres unmarked) [Example 29-4, 4-{4-[(4-methoxyphenyl)acetyl]octahydro-1H-pyrrolo[3,2-b]pyridin-1-yl}-7H-pyrrolo[2,3-d]pyrimidine]: the IC50 lay within 10 to 100 nM.

On to `O=C(Cc1ccc(C(F)(F)F)cc1)N1CCCC2C1CCN2c1ncnc2[nH]ccc12` (centres unmarked) [Example 29-5, 4-(4-{[4-(trifluoromethyl)phenyl]acetyl}octahydro-1H-pyrrolo[3,2-b]pyridin-1-yl)-7H-pyrrolo[2,3-d]pyrimidine], for which the IC50 lay in the range of 10 to 100 nM.

Consider `CN1CCN(c2ccc(C(=O)N3CCCC4C3CCN4c3ncnc4[nH]ccc34)cc2)CC1` (centres unmarked) [Example 29-6, 4-(4-{[4-(4-methylpiperazin-1-yl)phenyl]carbonyl}octahydro-1H-pyrrolo[3,2-b]pyridin-1-yl)-7H-pyrrolo[2,3-d]pyrimidine], for which the IC50 was in the range of 100 to 1000 nM.

In the case of `O=C(c1ccco1)N1CCC[C@@H]2[C@H]1CCN2c1ncnc2[nH]ccc12` [Example 29-9, 4-[(3 aR,7aR)-4-(furan-2-ylcarbonyl)octahydro-1H-pyrrolo[3,2-b]pyridin-1-yl]-7H-pyrrolo[2,3-d]pyrimidine], the IC50 is 10 to 100 nM.

With `O=C(c1cccnc1)N1CCC[C@@H]2[C@H]1CCN2c1ncnc2[nH]ccc12` [Example 29-10, 4-[(3aR,7aR)-4-(pyridin-3-ylcarbonyl)octahydro-1H-pyrrolo[3,2-b]pyridin-1-yl]-7H-pyrrolo[2,3-d]pyrimidine], the IC50 fell in the range of 10 to 100 nM.

Take `O=C(c1ccccn1)N1CCC[C@@H]2[C@H]1CCN2c1ncnc2[nH]ccc12` [Example 29-11, 4-[(3aR,7aR)-4-(pyridin-2-ylcarbonyl)octahydro-1H-pyrrolo[3,2-b]pyridin-1-yl]-7H-pyrrolo[2,3-d]pyrimidine]: the IC50 fell in the range of 100 to 1000 nM.

Regarding `O=C(c1ccncc1)N1CCC[C@@H]2[C@H]1CCN2c1ncnc2[nH]ccc12` [Example 29-12, 4-[(3aR,7aR)-4-(pyridin-4-ylcarbonyl)octahydro-1H-pyrrolo[3,2-b]pyridin-1-yl]-7H-pyrrolo[2,3-d]pyrimidine], the IC50 is 10 to 100 nM.

Consider `O=C(c1cnccn1)N1CCC[C@@H]2[C@H]1CCN2c1ncnc2[nH]ccc12` [Example 29-13, 4-[(3aR,7aR)-4-(pyrazin-2-ylcarbonyl)octahydro-1H-pyrrolo[3,2-b]pyridin-1-yl]-7H-pyrrolo[2,3-d]pyrimidine], for which the IC50 was in the range of 10 to 100 nM.

In the case of `Cc1cc(C(=O)N2CCC[C@@H]3[C@H]2CCN3c2ncnc3[nH]ccc23)no1` [Example 29-14, 4-{(3aR,7aR)-4[(5-methylisoxazol-3-yl)carbonyl]octahydro-1H-pyrrolo[3,2-b]pyridin-1-yl}-7H-pyrrolo[2,3-d]pyrimidine], the IC50 lay in the range of 100 to 1000 nM.

With `O=C(C1CCCCC1)N1CCC[C@@H]2[C@H]1CCN2c1ncnc2[nH]ccc12` [Example 29-15, 4-[(3aR,7aR)-4-(cyclohexylcarbonyl)octahydro-1H-pyrrolo[3,2-b]pyridin-1-yl]-7H-pyrrolo[2,3-d]pyrimidine], the IC50 was 10 to 100 nM.

Take `O=C1CCCN1CC(=O)N1CCC[C@@H]2[C@H]1CCN2c1ncnc2[nH]ccc12` [Example 29-16, 1-{2-oxo-2-[(3aR,7aR)-1-(7H-pyrrolo[2,3-d]pyrimidin-4-yl)octahydro-4H-pyrrolo[3,2-b]pyridin-4-yl]ethyl}pyrrolidin-2-one]: the IC50 was 100 to 1000 nM.

As to `O=C(c1ccccc1Cl)N1CCC[C@@H]2[C@H]1CCN2c1ncnc2[nH]ccc12` [Example 29-17, 4-{(3aR,7aR)-4-[(2-chlorophenyl)carbonyl]octahydro-1H-pyrrolo[3,2-b]pyridin-1-yl}-7H-pyrrolo[2,3-d]pyrimidine], the IC50 was in the range of 10 to 100 nM.

In the case of `O=C(c1cccc(Cl)c1)N1CCC[C@@H]2[C@H]1CCN2c1ncnc2[nH]ccc12` [Example 29-18, 4-{(3aR,7aR)-4-[(3-chlorophenyl)carbonyl]octahydro-1H-pyrrolo[3,2-b]pyridin-1-yl}-7H-pyrrolo[2,3-d]pyrimidine], the IC50 lay within 10 to 100 nM.

In the case of `O=C(c1cccc2ccccc12)N1CCC[C@@H]2[C@H]1CCN2c1ncnc2[nH]ccc12` [Example 29-20, 4-[(3aR,7aR)-4-(naphthalen-1-ylcarbonyl)octahydro-1H-pyrrolo[3,2-b]pyridin-1-yl]-7H-pyrrolo[2,3-d]pyrimidine], the IC50 lay in the range of 10 to 100 nM.

For `Cn1c(C(=O)N2CCC[C@@H]3[C@H]2CCN3c2ncnc3[nH]ccc23)cc2ccccc21` [Example 29-21, 4-{(3aR,7aR)-4-[(1-methyl-1H-indol-2-yl)carbonyl]octahydro-1H-pyrrolo[3,2-b]pyridin-1-yl}-7H-pyrrolo[2,3-d]pyrimidine], the IC50 lay in the range of 10 to 100 nM.

Turning to `O=C(c1cccc(N2CCOCC2)c1)N1CCC[C@@H]2[C@H]1CCN2c1ncnc2[nH]ccc12` [Example 29-22, 4-{(3aR,7aR)-4-[(3-morpholin-4-ylphenyl)carbonyl]octahydro-1H-pyrrolo[3,2-b]pyridin-1-yl}-7H-pyrrolo[2,3-d]pyrimidine], the IC50 lay within 100 to 1000 nM.

For the molecule `O=C(c1ccccc1-c1ccccc1)N1CCC[C@@H]2[C@H]1CCN2c1ncnc2[nH]ccc12` [Example 29-23, 4-[(3aR,7aR)-4-(biphenyl-2-ylcarbonyl)octahydro-1H-pyrrolo[3,2-b]pyridin-1-yl]-7H-pyrrolo[2,3-d]pyrimidine], the IC50 is 100 to 1000 nM.

Consider `O=C(C(c1ccccc1)c1ccccc1)N1CCC[C@@H]2[C@H]1CCN2c1ncnc2[nH]ccc12` [Example 29-24, 4-[(3aR,7aR)-4-(diphenylacetyl)octahydro-1H-pyrrolo[3,2-b]pyridin-1-yl]-7H-pyrrolo[2,3-d]pyrimidine], for which the IC50 fell in the range of 100 to 1000 nM.

Turning to `O=C(c1cn2ccccc2n1)N1CCC[C@@H]2[C@H]1CCN2c1ncnc2[nH]ccc12` [Example 29-25, 4-[(3aR,7aR)-4-(imidazo[1,2-a]pyridin-2-ylcarbonyl)octahydro-1H-pyrrolo[3,2-b]pyridin-1-yl]-7H-pyrrolo[2,3-d]pyrimidine], the IC50 fell in the range of 100 to 1000 nM.

Turning to `O=C(c1ccc2ccccc2c1)N1CCC[C@@H]2[C@H]1CCN2c1ncnc2[nH]ccc12` [Example 29-26, 4-[(3aR,7aR)-4-(naphthalen-2-ylcarbonyl)octahydro-1H-pyrrolo[3,2-b]pyridin-1-yl]-7H-pyrrolo[2,3-d]pyrimidine], the IC50 lay within 10 to 100 nM.

With `O=C(c1cn2cccnc2n1)N1CCC[C@@H]2[C@H]1CCN2c1ncnc2[nH]ccc12` [Example 29-27, 4-[(3aR,7aR)-4-(imidazo[1,2-a]pyrimidin-2-ylcarbonyl)octahydro-1H-pyrrolo[3,2-b]pyridin-1-yl]-7H-pyrrolo[2,3-d]pyrimidine], the IC50 lay in the range of 10 to 100 nM.

As for `O=C(c1cccs1)N1CCC[C@@H]2[C@H]1CCN2c1ncnc2[nH]ccc12` [Example 29-28, 4-[(3aR,7aR)-4-(thiophen-2-ylcarbonyl)octahydro-1H-pyrrolo[3,2-b]pyridin-1-yl]-7H-pyrrolo[2,3-d]pyrimidine], the IC50 fell in the range of 1 to 10 nM.

Consider `N#Cc1ccc(C(=O)N2CCC[C@@H]3[C@H]2CCN3c2ncnc3[nH]ccc23)cc1` [Example 29-29, 4-{[(3aR,7aR)-1-(7H-pyrrolo[2,3-d]pyrimidin-4-yl)octahydro-4H-pyrrolo[3,2-b]pyridin-4-yl]carbonyl}benzonitrile], for which the IC50 lay within 10 to 100 nM.

Consider `CCC[C@H]1C[C@H]1C(=O)N1CCC[C@@H]2[C@H]1CCN2c1ncnc2[nH]ccc12` [Example 29-30, 4-[(3aR,7aR)-4-{[(1R,2S)-2-propylcyclopropyl]carbonyl}octahydro-1H-pyrrolo[3,2-b]pyridin-1-yl]-7H-pyrrolo[2,3-d]pyrimidine], for which the IC50 was in the range of 10 to 100 nM.

For `N#Cc1cccc(C(=O)N2CCC[C@@H]3[C@H]2CCN3c2ncnc3[nH]ccc23)c1` [Example 29-31, 3-{[(3aR,7aR)-1-(7H-pyrrolo[2,3-d]pyrimidin-4-yl)octahydro-4H-pyrrolo[3,2-b]pyridin-4-yl]carbonyl}benzonitrile], the IC50 fell in the range of 10 to 100 nM.

On to `O=C(c1ccsc1)N1CCC[C@@H]2[C@H]1CCN2c1ncnc2[nH]ccc12` [Example 29-32, 4-[(3aR,7aR)-4-(thiophen-3-ylcarbonyl)octahydro-1H-pyrrolo[3,2-b]pyridin-1-yl]-7H-pyrrolo[2,3-d]pyrimidine], for which the IC50 fell in the range of 10 to 100 nM.

Consider `N#Cc1ccccc1C(=O)N1CCC[C@@H]2[C@H]1CCN2c1ncnc2[nH]ccc12` [Example 29-33, 2-{[(3aR,7aR)-1-(7H-pyrrolo[2,3-d]pyrimidin-4-yl)octahydro-4H-pyrrolo[3,2-b]pyridin-4-yl]carbonyl}benzonitrile], for which the IC50 is 10 to 100 nM.

Turning to `O=C(c1ccccc1)N1CCC[C@@H]2[C@H]1CCN2c1ncnc2[nH]ccc12` [Example 29-34, 4-[(3aR,7aR)-4-(phenylcarbonyl)octahydro-1H-pyrrolo[3,2-b]pryidin-1-yl]-7H-pyrrolo[2,3-d]pyrimidine], the IC50 is 10 to 100 nM.

For `CN(C)C(=O)N1CCC(C(=O)N2CCC[C@@H]3[C@H]2CCN3c2ncnc3[nH]ccc23)CC1` [Example 29-35, N,N-dimethyl-4-{[(3aR,7aR)-1-(7H-pyrrolo[2,3-d]pyrimidin-4-yl)octahydro-4H-pyrrolo[3,2-b]pyridin-4-yl]carbonyl}piperidine-1-carboxamide], the IC50 is 10 to 100 nM.

The assay is the same for the next values; noted with them: Jak1 activity, IC50 class, recombinant GST-tagged catalytic domain.
In the case of `O=C(c1cc2ccccc2[nH]1)N1CCC[C@@H]2[C@H]1CCN2c1ncnc2[nH]ccc12` [Example 29-19, 4-[(3aR,7aR)-4-(1H-indol-2-ylcarbonyl)octahydro-1H-pyrrolo[3,2-b]pyridin-1-yl]-7H-pyrrolo[2,3-d]pyrimidine], the IC50 fell in the range of 100 to 1000 nM.

Still in this assay, the particulars now being: recombinant GST-tagged catalytic domain, 31.8 μM ATP, read-out: Representative IC50 values.
On to `O=C(c1cccs1)N1CCC[C@@H]2[C@H]1CCN2c1ncnc2[nH]ccc12` [Example 29-28, 4-[(3aR,7aR)-4-(thiophen-2-ylcarbonyl)octahydro-1H-pyrrolo[3,2-b]pyridin-1-yl]-7H-pyrrolo[2,3-d]pyrimidine], for which the IC50 stood at 5 nM.
